In patent US9284333B2, “Fused pyrroledicarboxamides and their use as pharmaceuticals” (SANOFI, priority 2012, dated 2016):

molecular target: Human TASK-1 channels (Homo sapiens (Human), UniProt O14649); test: Determination of the activity on the TASK-1 channel in Xenopus oocytes (two-microelectrode voltage clamp); assay type: cell-based; settings: compound concentration 5 μM
How it was run: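 Current during 500 ms pulses to 40 mV from a −90 mV hold was recorded in oocytes expressing human TASK-1 for two days after cRNA injection. Compounds were added cumulatively to the ND96 bath (pH 7.4, room temperature). IC50 came from dose-response fitting of inhibition relative to pre-compound current.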

Human TASK-1 channels, sequence (O14649 whole entry): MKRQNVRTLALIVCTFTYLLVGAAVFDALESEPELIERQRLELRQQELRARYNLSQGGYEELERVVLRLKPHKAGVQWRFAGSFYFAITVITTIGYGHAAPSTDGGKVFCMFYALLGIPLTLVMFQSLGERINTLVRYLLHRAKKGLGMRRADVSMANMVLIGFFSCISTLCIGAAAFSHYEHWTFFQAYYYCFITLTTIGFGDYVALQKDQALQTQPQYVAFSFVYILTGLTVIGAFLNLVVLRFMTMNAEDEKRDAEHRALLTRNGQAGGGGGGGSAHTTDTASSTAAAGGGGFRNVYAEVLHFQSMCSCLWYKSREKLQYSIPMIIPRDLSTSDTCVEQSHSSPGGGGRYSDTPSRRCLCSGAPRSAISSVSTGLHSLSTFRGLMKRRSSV

inhibition at 5 µM [%]	Compound
47	CC[C@@H](NC(=O)c1cc(C(=O)N2CCC[C@@H]2C)n2c1COCC2)c1ncccn1 [16bd, 6-((S)-2-Methyl-pyrrolidine-1-carbonyl)-3,4-dihydro-1H-pyrrolo[2,1-c][1,4]oxazine-8-carboxylic acid ((R)-1-pyrimidin-2-yl-propyl)-amide]
71	CC(C)[C@@H](NC(=O)c1cc(C(=O)N2CCC[C@@H]2C)c2n1CCOC2)c1ccc(C(F)(F)F)nc1 [16po, 8-((S)-2-Methyl-pyrrolidine-1-carbonyl)-3,4-dihydro-1H-pyrrolo[2,1-c][1,4]oxazine-6-carboxylic acid [(R)-2-methyl-1-(6-trifluoromethyl-pyridin-3-yl)-propyl]-amide]
69	CC[C@@H](NC(=O)c1cc(C(=O)N2CCC2C)n2c1COCC2)c1ccc(C(F)(F)F)nc1 (stereo partly drawn) [16pe, 6-(2-Methyl-azetidine-1-carbonyl)-3,4-dihydro-1H-pyrrolo[2,1-c][1,4]oxazine-8-carboxylic acid [(R)-1-(6-trifluoromethyl-pyridin-3-yl)-propyl]-amide]
80	CC[C@@H](NC(=O)c1cc(C(=O)NCc2ccc(OC)nc2)n2c1COCC2)c1ccccc1 [16jg, 3,4-Dihydro-1H-pyrrolo[2,1-c][1,4]oxazine-6,8-dicarboxylic acid 6-[(6-methoxy-pyridin-3-ylmethyl)-amide] 8-[((R)-1-phenyl-propyl)-amide]]

same assay, conditions: human TASK-1 expressed in Xenopus oocytes, room temperature; read-out: IC50 value for TASK-1 inhibition

IC50 [µM]	Compound
0.69	CC[C@@H](NC(=O)c1cc(C(=O)N[C@H](CC)c2cncc(C(F)(F)F)c2)n2c1COCC2)c1ccccc1 [16hn, 3,4-Dihydro-1H-pyrrolo[2,1-c][1,4]oxazine-6,8-dicarboxylic acid 8-[((R)-1-phenyl-propyl)-amide] 6-{[(R)-1-(5-trifluoromethyl-pyridin-3-yl)-propyl]-amide}]
0.27	CC[C@@H](NC(=O)c1cc(C(=O)N2CCC[C@@H]2C)n2c1CSCC2)c1ccccc1 [16kz, 6-((S)-2-Methyl-pyrrolidine-1-carbonyl)-3,4-hihydro-1H-pyrrolo[2,1-c][1,4]thiazine-8-carboxylic acid ((R)-1-phenyl-propyl)-amide]
0.6	CC[C@@H](NC(=O)c1cc(C(=O)N[C@H](C)c2ccc(F)cc2)n2c1COCC2)c1ccc(C#N)cc1 [16ec, 3,4-Dihydro-1H-pyrrolo[2,1][1,4]oxazine-6,8-dicarboxylic acid 8-{[(R)-1-(4-cyano-phenyl)-propyl]-amide} 6-{[(R)-1-(4-fluoro-phenyl)-ethyl]-amide}]
0.062	CCOC(=O)C[C@H]1CCCN1C(=O)c1cc(C(=O)N[C@H](C)c2ccc(F)cc2)n2c1COCC2 [16dl, ((R)-1-{6-[(R)-1-(4-Fluoro-phenyl)-ethylcarbamoyl]-3,4-dihydro-1H-pyrrolo[2,1-c][1,4]oxazine-8-carbonyl}-pyrrolidin-2-yl)-acetic acid ethyl ester]
0.49	CC[C@@H](NC(=O)c1cc(C(=O)N2CCC[C@@H]2C)n2c1COCC2)c1ccc(F)c(C#N)c1 [16gq, 6-((S)-2-Methyl-pyrrolidine-1-carbonyl)-3,4-dihydro-1H-pyrrolo[2,1-c][1,4]oxazine-8-carboxylic acid [(R)-1-(3-cyano-4-fluoro-phenyl)-propyl]-amide]
0.13	CC[C@@H](NC(=O)c1cc(C(=O)N[C@H](C)c2cnccn2)c2n1CCOC2)c1ccc(F)cc1Cl [16kn, 3,4-Dihydro-1H-pyrrolo[2,1-c][1,4]oxazine-6,8-dicarboxylic acid 6-{[(R)-1-(2-chloro-4-fluoro-phenyl)-propyl]-amide} 8-[((R)-1-pyrazin-2-yl-ethyl)-amide]]
0.14	CC[C@@H](NC(=O)c1cc(C(=O)N2CCC[C@@H]2C)n2c1COCC2)c1ccc(C(F)(F)F)nc1C [16cb, 6-((S)-2-Methyl-pyrrolidine-1-carbonyl)-3,4-dihydro-1H-pyrrolo[2,1-c][1,4]oxazine-8-carboxylic acid [(R)-1-(2-methyl-6-trifluoromethyl-pyridin-3-yl)-propyl]-amide]
4.7	CC[C@@H](NC(=O)c1cc(C(=O)N2CCC[C@@H]2C(C)O)n2c1COCC2)c1ccccc1 (stereo partly drawn) [16ey, 6-[(R)-2-(1-Hydroxy-ethyl)-pyrrolidine-1-carbonyl]-3,4-dihydro-1H-pyrrolo[2,1-c][1,4]oxazine-8-carboxylic acid ((R)-1-phenyl-propyl)-amide]
0.26	CC[C@@H](NC(=O)c1cc(C(=O)NC(C)c2cnccn2)n2c1COCC2)c1ccccc1 (single isomer, unassigned) [16ie]
0.88	CC[C@@H](NC(=O)c1cc(C(=O)N2CCC[C@@H]2C)n2c1COCC2)c1cnc(C(F)(F)F)cc1Cl [16br, 6-((S)-2-Methyl-pyrrolidine-1-carbonyl)-3,4-dihydro-1H-pyrrolo[2,1-c][1,4]oxazine-8-carboxylic acid [(R)-1-(4-chloro-6-trifluoromethyl-pyridin-3-yl)-propyl]-amide]
0.31	CC[C@@H](NC(=O)c1cc(C(=O)NC(C)c2ncccn2)n2c1COCC2)c1ccccc1Cl (stereo partly drawn) [16nr, 3,4-Dihydro-1H-pyrrolo[2,1-c][1,4]oxazine-6,8-dicarboxylic acid 8-{[(R)-1-(2-chloro-phenyl)-propyl]-amide} 6-[(1-pyrimidin-2-yl-ethyl)-amide]]
0.78	CC[C@@H](NC(=O)c1cc(C(=O)N(C)Cc2ccccn2)n2c1COCC2)c1ccccc1 [16gw, 3,4-Dihydro-1H-pyrrolo[2,1-c][1,4]oxazine-6,8--dicarboxylic acid 6-(methyl-pyridin-2-ylmethyl-amide) 8-[((R)-1-phenyl-propyl)-amide]]
0.048	CC[C@@H](NC(=O)c1cc(C(=O)N[C@H](C)c2ccc(F)cc2)n2c1COCC2)c1cnc(OC)cn1 [16dw, 3,4-Dihydro-1H-pyrrolo[2,1-c][1,4]oxazine-6,8-dicarboxylic acid 6-{[(R)-1-(4-fluoro-phenyl)-ethyl]-amide} 8-{[(R)-1-(5-methoxy-pyrazin-2-yl)-propyl]-amide}]
0.4	CC[C@@H](NC(=O)c1cc(C(=O)N2CCC[C@@H]2C)n2c1COCC2)c1ccc(OC)cc1 [16at, 6-((S)-2-Methyl-pyrrolidine-1-carbonyl)-3,4-dihydro-1H-pyrrolo[2,1-c][1,4]oxazine-8-carboxylic acid [(R)-1-(4-methoxy-phenyl)-propyl]-amide]
0.53	CC[C@@H](NC(=O)c1cc(C(=O)NCc2ncccn2)n2c1COCC2)c1ccccc1 [16hj, 3,4-Dihydro-1H-pyrrolo[2,1-c][1,4]oxazine-6,8-dicarboxylic acid 8-[((R)-1-phenyl-propyl)-amide] 6-[(pyrimidin-2-ylmethyl)-amide]]
0.27	CC[C@@H](NC(=O)c1cc(C(=O)N2CCC[C@H]2C)c2n1CCOC2)c1ccccc1 [16kj, 8-((R)-2-Methyl-pyrrolidine-1-carbonyl)-3,4-dihydro-1H-pyrrolo[2,1-c][1,4]oxazine-6-carboxylic acid ((R)-1-phenyl-propyl)-amide]
1	CC[C@@H](NC(=O)c1cc(C(=O)NCc2ncco2)c2n1CCOC2)c1ccccc1 [16jn, 3,4-Dihydro-1H-pyrrolo[2,1-c][1,4]oxazine-6,8-dicarboxylic acid 8-[(oxazol-2-ylmethyl)-amide] 6-[((R)-1-phenyl-propyl)-amide]]
1.9	CC[C@@H](NC(=O)c1cc(C(=O)N2CCC[C@@H]2C)n2c1COCC2)c1cccnc1C(F)(F)F [16r, 6-((S)-2-Methyl-pyrrolidine-1-carbonyl)-3,4-dihydro-1H-pyrrolo[2,1-c][1,4]oxazine-8-carboxylic acid [(R)-1-(2-trifluoromethyl-pyridin-3-yl)-propyl]-amide]
0.21	CC[C@@H](NC(=O)c1cc(C(=O)N2CCC[C@@H]2C(C)C)c2n1CCOC2)c1ccccc1 [16kl, 8-((R)-2-Isopropyl-pyrrolidine-1-carbonyl)-3,4-dihydro-1H-pyrrolo[2,1-c][1,4]oxazine-6-carboxylic acid ((R)-1-phenyl-propyl)-amide]
0.22	CC[C@@H](NC(=O)c1cc(C(=O)Nc2cc(C(F)(F)F)ccc2Cl)c2n1CCOC2)c1ccccc1 [16jx, 3,4-Dihydro-1H-pyrrolo[2,1-c][1,4]oxazine-6,8-dicarboxylic acid 8-[(2-chloro-5-trifluoromethyl-phenyl)-amide] 6-[((R)-1-phenyl-propyl)-amide]]
0.55	CCC(NC(=O)c1cc(C(=O)N2CCC[C@@H]2C)n2c1COCC2)c1ccc(C(C)(F)F)cc1 (stereo partly drawn) [16bc, 6-((S)-2-Methyl-pyrrolidine-1-carbonyl)-3,4-dihydro-1H-pyrrolo[2,1-c][1,4]oxazine-8-carboxylic acid {1-[4-(1,1-difluoro-ethyl)-phenyl]-propyl}-amide]
0.16	C[C@@H](NC(=O)c1cc(C(=O)N2CCC[C@@H]2C(F)(F)F)c2n1CCOC2)c1ccc(F)cc1 [16dk, 8-((R)-2-Trifluoromethyl-pyrrolidine-1-carbonyl)-3,4-dihydro-1H-pyrrolo[2,1-c][1,4]oxazine-6-carboxylic acid [(R)-1-(4-fluoro-phenyl)-ethyl]-amide]
0.23	CC[C@@H](NC(=O)c1cc(C(=O)N2CCC[C@@H]2CC(=O)OC(C)C)n2c1COCC2)c1ccccc1 [16fo, {(R)-1-[8-((R)-1-Phenyl-propylcarbamoyl)-3,4-dihydro-1H-pyrrolo[2,1-c][1,4]oxazine-6-carbonyl]-pyrrolidin-2-yl}-acetic acid isopropyl ester]
0.66	CC[C@@H](NC(=O)c1cc(C(=O)N[C@H](CC)c2cccnc2C(F)(F)F)n2c1COCC2)c1ccccc1 [16hm, 3,4-Dihydro-1H-pyrrolo[2,1-c][1,4]oxazine-6,8-dicarboxylic acid 8-[((R)-1-phenyl-propyl)-amide] 6-{[(R)-1-(2-trifluoromethyl-pyridin-3-yl)-propyl]-amide}]
0.097	CC[C@@H](NC(=O)c1cc(C(=O)NCCc2ccc(F)cc2)n2c1CCCC2)c1ccccc1 [16mx, 5,6,7,8-Tetrahydro-indolizine-1,3-dicarboxylic acid 3-{[2-(4-fluoro-phenyl)-ethyl]-amide} 1-[((R)-1-phenyl-propyl)-amide]]
